# Reference: US20250108100A1, “C-TERMINAL FRAGMENT OF APOLIPOPROTEIN E AND APPLICATION THEREOF IN INHIBITING y-SECRETASE ACTIVITY” (SYNPHATEC (SHANGHAI) BIOPHARMACEUTICAL TECHNOLOGY CO., LTD., priority 2022, published 2025)
# Entries after “also recorded” stand apart in the source; their conditions may differ.
# Tests used:
# [1] = tested on: human APP co-expressed in HEK 293T cells; test: α-CTF produced by APP co-expressed in HEK 293T cells (Western blot); assay type: cell-based; conditions: Western blot, vs GFP control
# Method: • a) A plasmid expressing the target protein in mammalian cells was constructed, and the protein expression promoter is CAG. • b) The target protein was expressed in HEK 293T cell line. Cells were subcultured one day before transfection, and transfection was performed when the degree of cell adhesion reached 70%-80%. The transfection reagent was lipofectamine2000 (ThermoFisher). • c) 4-6 hours post transfection, the medium were replaced with fresh cell culture medium. • d) 36-48 hours post transfection, the cells were lysed (10% 1M tris-HCl (pH=6.8), 4% SDS, 20% glycerol, 0.01% bromophenol blue), and the protein samples were collected and used for Western blot or stored in a −80° C. freezer. • e) Polyacrylamide gel electrophoresis. Before protein loading, the protein was boiled at 98° C. for 10 min, and then centrifuged at 12000 rpm for 10 min. Electrophoresis: 80V for the upper stacking gel; 120V for the lower separating gel. • f) Protein transfer. The filter paper was soaked in the electrophoresis solution before use, and the PVDF membrane was put in methanol for 10s to activate, and the gel after electrophoresis was taken out from the electrophoresis tank, put in the order of filter paper—PVD membrane—gel-filter paper from bottom to top, and they were put into the transfer instrument, with transferring in constant current at 0.1 A for 70 min. • g) Blocking and antibody incubation: the transferred PVDF membrane was placed in 5% BSA/TBST blocking solution, and blocked on a shaker at room temperature for 1 hour. The primary antibody was used to incubate at 4° C. overnight on a shaker (12-16 h); 1×TBST was used to wash three times, once every 10 minutes; the secondary antibody was used to incubate, shaked at room temperature for 1-2 h; 1×TBST was used to wash three times, once every 10 minutes. • h) Imaging by development: development was performed with ECL chemiluminescence hypersensitive chromogenic reagent.
# Plasmids were transfected in HEK 293T or N2A cells for 36-48 hours and then lysed in cell lysis buffer [10% 1M tris-HCl (pH=6.8), 4% SDS, 20% glycerol, 0.01% bromophenol blue]. Lysates were shaken at room temperature for 10 min, then boiled for 10 min, and centrifuged at 12,000×g for 10 min. Proteins were run on 8% or 12% Tris-glycine SDS-PAGE and transferred to PVDF membranes (Life Technologies). Samples were incubated overnight at 4° C. with primary antibody diluted in 5% BSA buffer (in 1×TBST). After washing 3 times with 1×TBST, they were incubated with secondary antibody diluted in 5% BSA buffer (in 1×TBST) for 2 hours at room temperature. Finally, after washing 3 times with 1×TBST, the signal was detected by ECL Western blotting substrate (Solarbio, PE0010).
# Data were analyzed by GraphPad Prism software (v6) using unpaired, paired, or one-sample t-tests. Aβ40 and Aβ42 levels were normalized to the corresponding GFP controls. α-CTF levels were normalized to FL-APP and corresponding GFP controls. All data are represented as mean±SEM. Statistical significance was defined as p<0.05. One, two, three and four stars (*) in the graph indicate p-values <0.05, <0.01, <0.001 and <0.0001, respectively.
# [2] = tested on: primary cultured mouse hippocampal or cortical neurons; test: Endogenous Aβ40 in primary cultured mouse cortical or hippocampal neurons (lentivirus, ELISA); assay type: cell-based; conditions: primary cultured mouse neurons; lentivirus; vs GFP control
# Method: Primary cultured neurons were derived from the cortex or hippocampus of 16-day embryonic mice. The mouse cortex or hippocampus was obtained under a stereoscope, and was digested at 37° C. for 10 minutes with 20 U/ml papain (Worthington Company). After digestion, the neurons that exist in single-cell form were seeded with 100,000 neurons per well (24-well plate); the neurons were cultured in the neuron culture medium (Neurobasal medium; ThermoFisher Company) containing 2% B27 (ThermoFisher Company) and 1% penicillin/streptomycin; the fresh culture medium was changed once a week.
# The experiment was performed according to the standard procedure in the ELISA analysis kit of Invitrogen Company. • a) The target protein was expressed in HEK 293T cell line. Cells were subcultured one day before transfection, and transfection was performed when the degree of cell adhesion reached 70%-80%. […]
# 48 hours after transfection of HEK 293T cells and N2A cells, or 4.5 days after lentivirus infection of neurons, media and lysates were collected. Aβ40 and Aβ42 in the culture medium and cell lysates were detected by an Aβ ELISA kit as indicated in the protocol. […]
# [3] = tested on: HEK 293T cells expressing APP; test: APP-expressing HEK 293T cells co-incubated with culture medium containing secreted ApoE2 or ApoE CT: α-CTF; assay type: cell-based, human; conditions: vs GFP control
# Method: • a) A plasmid expressing the target protein in mammalian cells was constructed, and the protein expression promoter is CAG. • b) The target protein was expressed in HEK 293T cell line. Cells were subcultured one day before transfection, and transfection was performed when the degree of cell adhesion reached 70%-80%. The transfection reagent was lipofectamine2000 (ThermoFisher). • c) 4-6 hours post transfection, the medium were replaced with fresh cell culture medium. • d) 36-48 hours post transfection, the cells were lysed (10% 1M tris-HCl (pH=6.8), 4% SDS, 20% glycerol, 0.01% bromophenol blue), and the protein samples were collected and used for Western blot or stored in a −80° C. freezer. • e) Polyacrylamide gel electrophoresis. Before protein loading, the protein was boiled at 98° C. for 10 min, and then centrifuged at 12000 rpm for 10 min. Electrophoresis: 80V for the upper stacking gel; 120V for the lower separating gel. • f) Protein transfer. […]
substance,measurement,setting,value
"ApoE2: human apolipoprotein E2, full-length 299 amino acid residues, SEQ ID NO: 12",α-CTF produced by co-expressed APP,[1],can significantly increase α-CTF; also recorded: significantly increased the α-CTF levels
same,endogenously produced Aβ40,[2],can reduce endogenously produced Aβ40; also recorded: could reduce the endogenous Aβ40
same,α-CTF produced by APP in cells co-incubated with protein in culture medium,[3],does not significantly alter α-CTF levels; also recorded: does not change the α-CTF; also recorded: does not alter the α-CTF
